Laboratory results reported in patent publication US11931362B2 (CIPLA LIMITED, priority 2019, dated 2024).

Test system: Escherichia coli, Staphylococcus aureus, Pseudomonas aeruginosa, Candida albicans, and Aspergillus niger
Experiment: Preservative efficacy test, overall outcome
Format: cell-based
Conditions: bacteria and fungi
Method: Preservative effectiveness tests are compendial-guided assays that determine efficacy for preservative systems in pharmaceutical preparations. In such assays, test formulations are challenged with standardized suspensions of indicator aerobic bacteria and molds and microorganism survival is monitored over a 28-day period. The efficacy of the preservative against various microorganisms was measured using a USP/EP preservative efficacy test. These tests were conducted on Memmert equipment. In the procedure, formulations were tested against the following microorganisms: Escherichia coli, Staphylococcus aureus, Pseudomonas aeruginosa, Candida albicans, and Aspergillus niger. The bacterial strains and fungi were inoculated at a total concentration of […]. Samples were incubated for 7 days at room temperature (25° C.), and the total bacterial and fungal counts were measured using a colony counter. The log reduction (LR) values for the bacterial and fungal counts were calculated as log (initial count/final count).

Question: With `OCc1ccccc1` [benzyl alcohol] as the compound, how does the “preservative efficacy test outcome” value read?
Answer: The value was “effective”.
